Reference: patent US20120220528A1, “SYSTEMS AND METHODS FOR THERAPY OF KIDNEY DISEASE AND/OR HEART FAILURE USING CHIMERIC NATRIURETIC PEPTIDES” (MEDTRONIC, INC., priority 2011, published 2012)
Entries after “also recorded” stand apart in the source; their conditions may differ. Bridges are numbered along the chain shown (N, C = ends). Where no end group is shown, it is not given here.

What was measured:
[1] = tested on: Human renal medullary epithelial cells; assay: In vitro cell-based assay of cGMP production; details: 9000, 3000, 300, 30, 10 and 0 nM, 15 minutes, ELISA
healthy canines [2] = assay: Healthy canines: diuresis and natriuresis after subcutaneous bolus; assay type: in vivo, canine; details: SQ bolus, BNP 25 μg/kg
healthy canines [3] = assay: Healthy canines: diuresis and natriuresis with IV infusion; assay type: in vivo, canine; details: one-hour IV infusion; CD-NP 100 ng/kg·min, BNP 30 ng/kg·min

Substance | stimulation of cGMP production [1] | sodium excretion (natriuresis) following subcutaneous bolus (healthy canines [2]; CD-NP 27 μg/kg) | urine flow following subcutaneous bolus vs baseline (healthy canines [2]; CD-NP 27 μg/kg (equimolar)) | sodium excretion (healthy canines [3]) | urine flow from baseline (healthy canines [3])
ANP: human atrial natriuretic peptide (Phoenix Pharmaceuticals), control; ligand to the NPR-A receptor (SLRRSSCFGGRMDRIGAQSGLGCNSFRY; disulfide 7-23 (inferred); ends not checked; UniProt P01160 124-151, looked up) | significantly less |  |  |  | 
BNP: commercial preparation of Natrecor; recombinant form of the 32 amino acid human B-type natriuretic peptide, comparative natriuretic peptide |  | increase | increase; also recorded: statistically significant | increasing trend | increasing trend
